Series [1] in a line: Dissolution test of eye drop formulations in water. The series is classed as physicochemical. Particulars: formulation AF1, 450 times dilution in water, maximum at about 10 minutes. The procedure:
In order to keep high concentrations of dissolved kinase inhibitors in the aqueous tear fluid the dissolution of the kinase inhibitor must proceed very quickly upon media dilution. The test formulation was above DF3 and the reference formulation was AF1 comprising acrizanib (Table 4 below). A dissolution test was performed by direct adding of a formulation aliquot into defined volume of water under constant stirring speed. The formulation/water ratio (final dilution) selection was based on the quantification limit of the used HPLC method and on the acrizanib solubility. The final dilution of 450 times was selected. At certain time after adding the formulation to water a sample of about 1 ml was taken from a stirring media, filtered through 0.45 µm filter and transferred to an HPLC vial for analysis.

The target in series [2] is EGFR (Homo sapiens, UniProt P00533). The conditions noted are these: vendor data; cited from earlier work.
The nature of series [3]: Solid and dissolved drug fraction and particle size of eye drop microsuspensions. Type of series: physicochemical.
The nature of series [4]: Experimental aqueous solubility. The series is classed as physicochemical. From the text: Further improvement of the complexation efficacy is obtained by addition of EDTA and polymers like tyloxapol.
The target in series [5] is T1, VEGFR2 (Homo sapiens, UniProt P35968). Kind of series: VEGFR2 IC50 values obtained from Selleckchem, Tocris Bioscience and TargetMol. The conditions noted are these: ratio of vendor IC50 values. Type of series: biochemical.
The conditions of series [6]: 7 days.
Series [7] can be described thus: Stability of orantinib in an autoclave. The series is classed as physicochemical. From the text:
Each vial was then split up into 2 vials. One vial of each set was autoclaved and all samples analyzed by HPLC.

Series [8] can be described thus: Phase solubility screening of orantinib with gamma-cyclodextrin at pH 6. Type of series: physicochemical. The conditions noted are these: 22.5 °C, thermodynamic from solid. The procedure: Phase solubility screening with gamma-cyclodextrin at pH 6. […] The suspensions formed were autoclaved for 15 minutes at 121° C.
The subject of series [9] is VEGFR2. The experiment in a line: PamChip kinase activity profiling in retina tissue lysates. The conditions noted are these: rabbit retina lysate. Also noted: VEGFR2 inhibition, Retina: dose or concentration left out as unconfirmed.
The test system of series [10] is VEGFR2. Kind of series: PamChip kinase activity profiling in cornea tissue lysates. The arrangement: VEGFR2 inhibition, Cornea: dose or concentration left out as unconfirmed. Particulars: rabbit cornea lysate.
Series [11] has as its target T1, VEGFR2. The conditions noted are these: vendor data; cited from earlier work.
For series [12] the following is noted: cited from earlier work; for solubility in pure water: 25° C.
A short description of series [13]: Solubility of axitinib free base with various acids and γ-cyclodextrin.
For series [14] the following is noted: cited from earlier work.
Series [15] concerns the target VEGFR2 (C-terminal fragment, amino acids D807-V1356) (Homo sapiens, UniProt P35968).
The target of series [16] is T2, EGFR (C-terminal fragment, amino acids H672-A1210) (Homo sapiens, UniProt P00533).
T2 construct: EGFR (C-terminal fragment, amino acids H672-A1210); purchased Proqinase (Freiburg Germany)
The experiment in a line: PamChip tyrosine kinase peptide array assay, recombinant EGFR. Type of series: biochemical.

The mark [17] stands for this setting: γ-cyclodextrin eye drop formulations.

Values after ≈ are worked out from the molar mass of the structure shown. Marks after values point to notes of the source that are not given here.

EGFR, sequence (P00533 25-1210, species assumed): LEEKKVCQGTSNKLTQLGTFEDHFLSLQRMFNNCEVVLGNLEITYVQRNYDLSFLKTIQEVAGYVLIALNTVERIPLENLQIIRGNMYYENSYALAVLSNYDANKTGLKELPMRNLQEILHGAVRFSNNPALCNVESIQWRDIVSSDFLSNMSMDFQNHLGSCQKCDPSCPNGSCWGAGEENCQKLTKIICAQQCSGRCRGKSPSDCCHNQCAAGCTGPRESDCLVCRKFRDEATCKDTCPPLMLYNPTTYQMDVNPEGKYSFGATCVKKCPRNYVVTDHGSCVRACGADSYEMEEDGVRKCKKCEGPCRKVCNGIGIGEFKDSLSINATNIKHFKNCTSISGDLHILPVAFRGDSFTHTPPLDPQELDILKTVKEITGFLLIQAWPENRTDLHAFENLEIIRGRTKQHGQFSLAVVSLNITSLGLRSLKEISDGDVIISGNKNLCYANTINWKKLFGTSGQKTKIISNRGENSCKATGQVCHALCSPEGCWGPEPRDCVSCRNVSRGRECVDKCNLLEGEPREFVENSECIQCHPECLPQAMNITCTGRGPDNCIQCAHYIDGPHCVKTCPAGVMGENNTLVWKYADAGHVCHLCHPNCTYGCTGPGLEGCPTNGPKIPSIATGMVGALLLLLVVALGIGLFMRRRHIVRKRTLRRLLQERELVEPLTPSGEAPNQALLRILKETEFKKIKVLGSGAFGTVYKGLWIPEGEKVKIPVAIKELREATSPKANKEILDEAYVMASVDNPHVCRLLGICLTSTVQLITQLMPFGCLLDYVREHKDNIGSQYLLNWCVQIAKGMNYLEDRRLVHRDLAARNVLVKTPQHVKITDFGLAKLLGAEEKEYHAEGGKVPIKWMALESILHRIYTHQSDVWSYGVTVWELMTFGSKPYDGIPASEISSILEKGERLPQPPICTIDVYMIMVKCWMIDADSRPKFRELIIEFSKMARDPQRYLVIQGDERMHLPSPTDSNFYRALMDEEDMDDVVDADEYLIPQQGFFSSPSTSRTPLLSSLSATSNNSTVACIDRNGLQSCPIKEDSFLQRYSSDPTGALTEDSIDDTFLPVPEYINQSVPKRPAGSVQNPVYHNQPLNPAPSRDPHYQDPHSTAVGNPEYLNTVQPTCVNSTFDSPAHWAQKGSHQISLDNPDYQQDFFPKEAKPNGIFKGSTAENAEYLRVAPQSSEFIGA
T1 sequence (P35968 20-1356, species assumed): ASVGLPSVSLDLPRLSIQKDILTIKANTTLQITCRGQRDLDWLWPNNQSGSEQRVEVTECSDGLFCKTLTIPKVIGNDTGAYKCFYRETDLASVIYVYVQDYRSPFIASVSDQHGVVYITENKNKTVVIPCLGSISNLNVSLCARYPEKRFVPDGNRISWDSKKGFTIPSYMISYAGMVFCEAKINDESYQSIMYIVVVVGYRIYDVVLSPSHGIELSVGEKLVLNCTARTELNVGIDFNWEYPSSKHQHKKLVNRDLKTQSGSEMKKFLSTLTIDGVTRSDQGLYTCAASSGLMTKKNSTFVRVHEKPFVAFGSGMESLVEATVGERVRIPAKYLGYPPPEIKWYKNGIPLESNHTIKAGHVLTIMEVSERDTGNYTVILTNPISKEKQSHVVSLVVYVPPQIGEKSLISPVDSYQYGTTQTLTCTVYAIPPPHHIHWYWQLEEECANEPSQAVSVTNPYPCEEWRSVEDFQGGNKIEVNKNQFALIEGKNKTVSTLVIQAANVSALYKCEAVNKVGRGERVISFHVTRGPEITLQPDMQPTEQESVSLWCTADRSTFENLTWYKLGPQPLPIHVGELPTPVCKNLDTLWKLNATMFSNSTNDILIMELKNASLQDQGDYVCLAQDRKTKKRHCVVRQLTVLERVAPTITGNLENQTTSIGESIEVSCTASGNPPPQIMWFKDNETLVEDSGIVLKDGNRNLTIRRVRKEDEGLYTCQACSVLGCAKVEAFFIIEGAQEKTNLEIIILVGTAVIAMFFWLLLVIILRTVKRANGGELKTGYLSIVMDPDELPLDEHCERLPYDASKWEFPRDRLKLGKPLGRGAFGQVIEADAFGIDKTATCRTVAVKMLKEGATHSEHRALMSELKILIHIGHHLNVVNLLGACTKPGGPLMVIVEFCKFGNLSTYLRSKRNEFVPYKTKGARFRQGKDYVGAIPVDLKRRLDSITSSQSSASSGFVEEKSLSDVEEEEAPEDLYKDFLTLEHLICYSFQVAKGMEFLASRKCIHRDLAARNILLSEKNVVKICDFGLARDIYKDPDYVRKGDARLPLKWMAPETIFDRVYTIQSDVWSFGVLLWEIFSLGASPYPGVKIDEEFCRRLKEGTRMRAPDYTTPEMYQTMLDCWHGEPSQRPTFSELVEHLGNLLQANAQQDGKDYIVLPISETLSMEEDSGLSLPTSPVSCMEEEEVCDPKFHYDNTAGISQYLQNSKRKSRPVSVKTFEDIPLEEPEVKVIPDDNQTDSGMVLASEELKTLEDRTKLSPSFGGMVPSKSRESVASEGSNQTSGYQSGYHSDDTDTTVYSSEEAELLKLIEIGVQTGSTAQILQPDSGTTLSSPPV
T2 sequence (P00533 672-1210): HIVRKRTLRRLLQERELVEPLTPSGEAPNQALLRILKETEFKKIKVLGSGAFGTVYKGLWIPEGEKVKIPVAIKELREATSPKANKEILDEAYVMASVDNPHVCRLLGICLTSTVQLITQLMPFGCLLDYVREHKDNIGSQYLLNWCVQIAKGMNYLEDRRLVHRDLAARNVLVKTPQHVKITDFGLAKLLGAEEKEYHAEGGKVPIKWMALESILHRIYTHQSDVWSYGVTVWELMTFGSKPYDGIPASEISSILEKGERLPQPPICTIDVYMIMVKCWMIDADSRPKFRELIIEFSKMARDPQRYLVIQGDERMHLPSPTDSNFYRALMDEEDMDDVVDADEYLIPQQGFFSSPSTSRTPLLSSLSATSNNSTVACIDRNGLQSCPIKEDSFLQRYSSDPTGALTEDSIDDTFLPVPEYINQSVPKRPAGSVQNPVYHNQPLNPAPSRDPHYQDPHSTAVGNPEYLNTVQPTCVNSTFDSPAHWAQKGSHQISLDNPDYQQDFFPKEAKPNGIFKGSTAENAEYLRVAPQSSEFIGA
VEGFR2 (C-terminal fragment, amino acids D807-V1356), sequence (P35968 807-1356): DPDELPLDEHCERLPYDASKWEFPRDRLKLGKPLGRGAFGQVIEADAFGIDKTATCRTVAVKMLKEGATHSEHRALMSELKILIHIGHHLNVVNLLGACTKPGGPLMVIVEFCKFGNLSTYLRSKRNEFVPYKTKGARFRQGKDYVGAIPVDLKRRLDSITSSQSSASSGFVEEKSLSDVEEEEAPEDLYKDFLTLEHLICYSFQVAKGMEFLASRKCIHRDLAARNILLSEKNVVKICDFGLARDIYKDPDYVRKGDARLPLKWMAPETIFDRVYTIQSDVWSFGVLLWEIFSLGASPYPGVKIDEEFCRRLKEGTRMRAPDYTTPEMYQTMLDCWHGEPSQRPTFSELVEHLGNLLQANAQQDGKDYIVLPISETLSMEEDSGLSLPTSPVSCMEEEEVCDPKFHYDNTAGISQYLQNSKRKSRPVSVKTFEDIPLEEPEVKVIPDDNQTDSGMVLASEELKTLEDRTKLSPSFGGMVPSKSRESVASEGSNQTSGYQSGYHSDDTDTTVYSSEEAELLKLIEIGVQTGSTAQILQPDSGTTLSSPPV

As to `CNCc1cc(Oc2ccc3c(ccn3C(=O)Nc3cc(C(F)(F)F)n(C)n3)c2)ncn1` [Acrizanib], in series [1], the “fraction of drug dissolved, maximum” value is reported as “about 7.5%”. Besides, in [2], the IC50 (commonly the concentration needed to halve the response being measured) was 1 µM.

Take `CC(O)C(=O)O.CC(O)C(=O)O.CN1CCN(c2ccc3nc(-c4c(N)c5c(F)cccc5[nH]c4=O)[nH]c3c2)CC1` [Dovitinib dilactate]: in series [3] (lactate salt with EDTA and surface active polymers, versus free base), the “increase of drug that could be dissolved and suspended” value is approximately 10 fold. Besides, in series [4] (pH 6.5), the S in water is 0.3 ^b mg/mL.

In the case of `O=C(Nc1ccc(OC(F)(F)F)cc1)c1sccc1NCc1ccnc2ccccc12` [OSI-930], the EGFR/VEGFR2 ratio in series [5] was 1000. The IC50 in series [2] was 10 µM.

Consider Cediranib maleate, for which the “solubility compared with the free base” value in series [4] was “significant greater solubility than the free base”.

`CNC(=O)c1cc(Oc2ccc(NC(=O)Nc3ccc(Cl)c(C(F)(F)F)c3)c(F)c2)ccn1` [Regorafenib]: the “CE (complexation efficacy)” value in series [6] is listed as 0.00002. Also, in series [2], the IC50 was 1 µM.

Consider `Cc1[nH]c(/C=C2\C(=O)Nc3ccccc32)c(C)c1CCC(=O)O` [Orantinib], for which the concentration before autoclave in [7] (sample 1-29, MQ water with NaOH, pH 7.4, filtered 0.45 micrometer) was 60 µq/ml; in series [7] (sample 2-29, MQ water with NaOH, pH 7.6, filtered 0.45 micrometer), 182 µq/ml; in [7] (sample 3-29, MQ water with NaOH, pH 7.8, filtered 0.45 micrometer) it was 321 µq/ml. The concentration after autoclave in series [7] (sample 1-29, pH 7.4) stood at 64 µg/mL; in series [7] (sample 2-29, pH 7.6), 176 µg/mL; in [7] (sample 3-29, pH 7.8) it was 316 µg/mL. For the same molecule, the solubility (in general, how much of the substance goes into solution per volume) at 4 h came out at 4 µg/mL (≈ 12.9 µM) in [8] (water with 0 % (w/v) γ-cyclodextrin, water, 0 % (w/v) γCD, pH 6.3); 14 µg/mL (≈ 45.1 µM) in series [8] (water with 5 % (w/v) γ-cyclodextrin, aqueous with cosolvent or surfactant or cyclodextrin, 5 % (w/v) γCD, pH 6.1); 17 µg/mL (≈ 54.8 µM) in [8] (water with 10 % (w/v) γ-cyclodextrin, aqueous with cosolvent or surfactant or cyclodextrin, 10 % (w/v) γCD, pH 6.2); 12 µg/mL (≈ 38.7 µM) in series [8] (water with 15 % (w/v) γ-cyclodextrin, aqueous with cosolvent or surfactant or cyclodextrin, 15 % (w/v) γCD, pH 6.0).

Regarding `COC(=O)c1ccc2c(c1)NC(=O)/C2=C(\Nc1ccc(N(C)C(=O)CN2CCN(C)CC2)cc1)c1ccccc1` [Nintedanib], in [9], the “VEGFR2 inhibition, Retina” value is on record as 94.33% and the “VEGFR2 potency ranking in retina” value is given as “most potent VEGFR2 inhibitor”. In addition, in [10], the “VEGFR2 inhibition, Cornea” value is 95.92% and the “VEGFR2 potency ranking in cornea” value is given as “most potent VEGFR2 inhibitor”.

Consider `COc1cc2nccc(Oc3ccc(NC(=O)Nc4ccc(F)cc4F)c(F)c3)c2cc1OC` [Ki8751], for which the IC50 is 4 nM in series [11] and 10 µM in [2]. Besides, the EGFR/VEGFR2 ratio in series [5] came out at 2500.

Take `O=C(Nc1cccc(C(F)(F)F)c1)c1cccc2cc(Oc3cc(CO)ncn3)ccc12` [BFH772]: the EGFR/VEGFR2 ratio in series [5] is recorded as 3333. The IC50 in series [2] is 10 µM.

As for `CC1(C)CNc2cc(NC(=O)c3cccnc3NCc3ccncc3)ccc21` [Motesanib], the “CE (complexation efficacy)” value in [6] was determined as 0.0052.

For the molecule `COc1cc2c(Oc3ccc4[nH]c(C)cc4c3F)ncnc2cc1OCCCN1CCCC1` [Cediranib], in [3] (setting [17]), the “diameter of dissolved drug/γ-cyclodextrin complex nanoparticles” value was “below 200 nm”; the “diameter of solid drug/γ-cyclodextrin complex microparticles” value is recorded as “less than 10 µm”; the “fraction of drug dissolved (free drug, complexes or complex nanoparticles)” value is listed as “about 13%”. In addition, the “fraction of drug in solid drug/γ-cyclodextrin complex microparticles” value in series [3] (γ-cyclodextrin eye drop formulations, from concentration before and after filtration) was “About 87%”. The “CE (complexation efficacy)” value in [6] came to 0.0578.

Take `CNC(=O)c1c(C)oc2cc(Oc3ncnc4cc(OC)c(OC)cc34)ccc12` [Fruquintinib]: in [5], the EGFR/VEGFR2 ratio was 857. The IC50 in series [2] was 30 µM.

For `COc1cc2c(Oc3ccc4[nH]c(C)cc4c3F)ccnc2cc1OCC1(N)CC1` [Anlotinib], the EGFR/VEGFR2 ratio in series [5] is 10,000. Further, in series [2], the IC50 was 2 µM.

Take `Cc1cc(F)c(Nc2ncnc3cc(OCc4ccccc4)ccc23)cc1O` [ZM 323881, 5-((7-Benzyloxyquinazolin-4-yl)amino)-4-fluoro-2-methylphenol]: the EGFR/VEGFR2 ratio in series [5] is recorded as 25,000. For the same molecule, the IC50 in series [2] is 50 µM.

For `OC[C@H]1O[C@@H]2O[C@H]3[C@H](O)[C@@H](O)[C@@H](O[C@H]4[C@H](O)[C@@H](O)[C@@H](O[C@H]5[C@H](O)[C@@H](O)[C@@H](O[C@H]6[C@H](O)[C@@H](O)[C@@H](O[C@H]7[C@H](O)[C@@H](O)[C@@H](O[C@H]8[C@H](O)[C@@H](O)[C@@H](O[C@H]9[C@H](O)[C@@H](O)[C@@H](O[C@H]1[C@H](O)[C@H]2O)O[C@@H]9CO)O[C@@H]8CO)O[C@@H]7CO)O[C@@H]6CO)O[C@@H]5CO)O[C@@H]4CO)O[C@@H]3CO` [γ-cyclodextrin], the “solubility in pure water” value in series [12] is 249.2 ± 0.2 mg/mL (≈ 192000 µM). Also, the “solubility in aqueous 3% (w/v) γ-cyclodextrin suspension saturated with hydrocortisone” value in series [12] is 13 mg/mL. Besides, the “solubility in pure water at room temperature” value in [12] is “about 250 mg/ml”. In addition, the γCD in solution in series [13] (10 mg/ml Axi + 50 mg/ml γCD + Acetic acid (1:1 molar), pH 3.5) was found to be 24 mg/mL; in series [13] (10 mg/ml Axi + 50 mg/ml γCD + Ascorbic acid (1:1 molar), pH 3.1), 27 mg/mL; in series [13] (10 mg/ml Axi + 50 mg/ml γCD + Hydrochloric acid (1:1 molar), pH 3.2), 21 mg/mL; in series [13] (10 mg/ml Axi + 50 mg/ml γCD + Lactic acid (1:1 molar), pH 2.8), 24 mg/mL; in series [13] (10 mg/ml Axi + 50 mg/ml γCD + Maleic acid (1:1 molar), pH 2.3) it was 25 mg/mL; in series [13] (10 mg/ml Axi + 50 mg/ml γCD + Malic acid (1:1 molar), pH 3.0) it was 24 mg/mL. Also, the γCD in solution in series [13] (10 mg/ml Axi + 50 mg/ml γCD + Tartaric acid (1:1 molar), pH 2.7) came to 22 mg/mL; in series [13] (10 mg/ml Axi + 50 mg/ml γCD, no acid, pH 9.1) it was 22 mg/mL.

With `O=C(Nc1cc(Oc2cc(F)c(NC(=O)C3(C(=O)Nc4ccc(F)cc4)CC3)cc2F)ccn1)C1CC1` [Altiratinib], in series [2], the IC50 was 3.3 µM.

For `O=C(O)CC(O)C(=O)O` (centres unmarked) [Malic], in [14], the “pKa (first or only value)” value is on record as 3.51 and the “pKa (second value)” value is 5.03.

As to `COCCNCc1ccc(-c2cc3nccc(Oc4ccc(NC(=O)C5(C(=O)Nc6ccc(F)cc6)CC5)cc4F)c3s2)nc1` [Sitravatinib], in [2], the IC50 is 5 µM.

Consider `OC[C@H]1O[C@@H]2O[C@H]3[C@H](O)[C@@H](O)[C@@H](O[C@H]4[C@H](O)[C@@H](O)[C@@H](O[C@H]5[C@H](O)[C@@H](O)[C@@H](O[C@H]6[C@H](O)[C@@H](O)[C@@H](O[C@H]7[C@H](O)[C@@H](O)[C@@H](O[C@H]1[C@H](O)[C@H]2O)O[C@@H]7CO)O[C@@H]6CO)O[C@@H]5CO)O[C@@H]4CO)O[C@@H]3CO` [α-cyclodextrin], for which, in [12], the “solubility in pure water” value is 129.5 ± 0.7 mg/mL (≈ 133000 µM).

On to `CNC(=O)c1ccccc1Sc1ccc2c(/C=C/c3ccccn3)n[nH]c2c1` [Axitinib], for which, in [15], the “VEGFR inhibition in the recombinant assays” value is “potent inhibitors for VEGFR”. The “CE (complexation efficacy)” value in series [6] amounted to 0.0002.

Take `Cc1ccc(Nc2nccc(N(C)c3ccc4c(C)n(C)nc4c3)n2)cc1S(N)(=O)=O` [Pazopanib]: the “CE (complexation efficacy)” value in series [6] was determined as 0.00002.

`COc1cc2nccc(Oc3ccc(NC(=O)C4(C(=O)Nc5ccc(F)cc5)CC4)cc3)c2cc1OC` [Cabozantinib]: in series [16], the “EGFR inhibition in the recombinant assays” value was “do not inhibit EGFR”. Besides, the “VEGFR2 inhibition, Retina” value in series [9] is given as 74.82%. Besides, the “VEGFR2 inhibition, Cornea” value in series [10] turned out to be 90.52%.
